# Measured values as given in PMC6407579, “New flavonoid – N,N-dibenzyl(N-methyl)amine hybrids: Multi-target-directed agents for Alzheimer´s disease endowed with neurogenic properties” (Journal of Enzyme Inhibition and Medicinal Chemistry, 2019).
# Values joined by “and” are separate entries in the source; they are usually repeats but may differ in a detail not shown here. Identical values can stand only once. Like-named read-outs stand apart in the source and are kept apart here.
# Tests used:
# [1] = In vitro blood-brain barrier permeation assay (PAMPA-BBB); type: in vitro ADME; conditions: pig, pH 7.4, porcine brain lipid, PBS:ethanol (70:30), 25 °C, read-out: PAMPA-BBB permeability in the CNS (Pe)
# Protocol: Prediction of the brain penetration was evaluated using a parallel artificial membrane permeation assay (PAMPA-BBB), in a similar manner as previously described[36]^,[46]^,[51–53]. Pipetting was performed with a semi-automatic pipettor (CyBi®-SELMA) and UV reading with a microplate spectrophotometer (Multiskan Spectrum, Thermo Electron Co.). Commercial drugs, phosphate buffered saline solution at pH 7.4 (PBS), and dodecane were purchased from Sigma, Aldrich, Acros, and Fluka. Millex filter units (PVDF membrane, diameter 25 mm, pore size 0.45 μm) were acquired from Millipore. The porcine brain lipid (PBL) was obtained from Avanti Polar Lipids. The donor microplate was a 96-well filter plate (PVDF membrane, pore size 0.45 μm) and the acceptor microplate was an indented 96-well plate, both from Millipore. The acceptor 96-well microplate was filled with 200 μL of PBS: ethanol (70:30) and the filter surface of the donor microplate was impregnated with 5 μL of porcine brain lipid (PBL) in dodecane (20 mg mL^−1). Compounds were dissolved in PBS: ethanol (70:30) at 100 μg mL^−1, filtered through a Millex filter, and then added to the donor wells (200 μL). The donor filter plate was carefully put on the acceptor plate to form a sandwich, which was left undisturbed for 120 min at 25 °C. After incubation, the donor plate is carefully removed and the concentration of compounds in the acceptor wells was determined by UV-Vis spectroscopy. Every sample is analysed at five wavelengths, in four wells and at least in three independent runs, and the results are given as the mean ± standard deviation. In each experiment, 11 quality control standards of known BBB permeability were included to validate and normalise the analysis set.
# To check if new compounds could be able to reach their CNS-targets, we used the in vitro parallel artificial membrane permeability assay for the blood-brain barrier (PAMPA-BBB) described by Di et al.[87], and partially modified by us for testing molecules with limited water-solubility[36]^,[46]^,[51–53]. The passive CNS-permeation of new compounds 1–13 through a lipid extract of porcine brain was measured at room temperature. In each experiment, 11 commercial drugs of known brain permeability were also tested and their permeability values normalised to the reported PAMPA-BBB data. […].
# [2] = target: T1, recombinant hMAO-A (Homo sapiens, UniProt P21397); test: biochemical; type: biochemical; conditions: for IC50: mean ± SEM (n = 3), 100 µM highest concentration tested
# T1 sequence (P21397 1-527): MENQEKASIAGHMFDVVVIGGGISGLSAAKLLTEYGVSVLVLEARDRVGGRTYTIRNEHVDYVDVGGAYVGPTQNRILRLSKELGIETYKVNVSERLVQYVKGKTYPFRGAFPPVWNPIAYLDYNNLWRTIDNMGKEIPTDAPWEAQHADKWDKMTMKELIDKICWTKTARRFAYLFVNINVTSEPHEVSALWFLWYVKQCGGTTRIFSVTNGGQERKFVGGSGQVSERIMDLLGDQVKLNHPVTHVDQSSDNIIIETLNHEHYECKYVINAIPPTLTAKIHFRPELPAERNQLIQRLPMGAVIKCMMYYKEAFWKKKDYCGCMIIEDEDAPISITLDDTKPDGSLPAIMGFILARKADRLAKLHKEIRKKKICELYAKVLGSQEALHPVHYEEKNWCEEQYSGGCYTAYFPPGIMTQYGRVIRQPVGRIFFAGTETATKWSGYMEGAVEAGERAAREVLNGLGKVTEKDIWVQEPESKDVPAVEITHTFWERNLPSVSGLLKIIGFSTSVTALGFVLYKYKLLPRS
# [3] = target: T2, hLOX-5 (Homo sapiens, UniProt P09917); test: Inhibition of human lipoxygenase-5 (fluorescence-based, Pufahl); type: biochemical; conditions: three independent experiments
# T2 sequence (P09917 1-674): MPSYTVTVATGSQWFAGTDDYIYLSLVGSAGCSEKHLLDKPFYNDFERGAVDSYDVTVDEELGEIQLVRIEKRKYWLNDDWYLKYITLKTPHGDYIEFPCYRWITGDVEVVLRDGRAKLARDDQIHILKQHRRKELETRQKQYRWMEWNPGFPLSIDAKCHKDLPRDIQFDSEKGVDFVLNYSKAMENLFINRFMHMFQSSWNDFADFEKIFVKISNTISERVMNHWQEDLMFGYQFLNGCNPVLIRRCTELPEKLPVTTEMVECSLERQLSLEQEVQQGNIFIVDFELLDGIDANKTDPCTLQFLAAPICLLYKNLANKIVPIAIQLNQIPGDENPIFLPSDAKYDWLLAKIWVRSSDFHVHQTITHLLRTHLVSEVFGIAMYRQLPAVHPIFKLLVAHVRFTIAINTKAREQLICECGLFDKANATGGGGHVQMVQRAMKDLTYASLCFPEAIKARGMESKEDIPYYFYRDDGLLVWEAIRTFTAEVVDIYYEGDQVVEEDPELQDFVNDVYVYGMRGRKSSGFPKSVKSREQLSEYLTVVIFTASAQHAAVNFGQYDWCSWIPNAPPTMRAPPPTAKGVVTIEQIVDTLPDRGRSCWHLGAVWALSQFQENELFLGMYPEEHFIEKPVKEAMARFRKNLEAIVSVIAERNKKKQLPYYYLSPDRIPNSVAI
# Protocol: The fluorescence-based enzyme method developed by Pufahl et al. was followed, in 96-well microtiter plates. The assay solution consists of Tris buffer (50 mM, pH 7.5), ethylenediaminetetraacetic acid (EDTA, 2 mM), CaCl2 (2 mM), arachidonic acid (AA, 3 μM), ATP (10 μM), 2',7'-dichlorodihydrofluorescein diacetate (H2DCFDA, 10 μM), hLOX-5 (100 mU/well), bovine glutathione peroxidase (GPx, 25 mU/well) and reduced glutathione (GSH, 1 mM). Compounds to be tested were added to the test solution prior to AA and ATP, and pre-incubated for a period of 10 min at room temperature. Then, the AA and ATP substrates were added; the enzymatic reaction allowed to progress for 20 min and ended by the addition of 40 μL of acetonitrile.
# A selection of new hybrids covering different structural motifs was assayed as inhibitors of hLOX-5, followed the method described by Pufahl et al.[55].
# [4] = target: T3, σ2R (Rattus norvegicus, UniProt Q5U3Y7); test: Sigma-2 receptor binding, [3H]-DTG competition
# T3 construct: 150 µg of rat liver homogenate were incubated; from tissue; host or cells: rat liver homogenate
# T3 sequence (Q5U3Y7 1-176): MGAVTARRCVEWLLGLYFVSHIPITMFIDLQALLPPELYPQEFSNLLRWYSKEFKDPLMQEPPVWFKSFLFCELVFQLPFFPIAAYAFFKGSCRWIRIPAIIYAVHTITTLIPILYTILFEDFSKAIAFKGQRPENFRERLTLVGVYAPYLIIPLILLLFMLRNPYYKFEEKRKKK
# [5] = mean ± SEM, read-out: hLOX-5 IC50
Compound,"Papp at 120 min, 100 μg mL^−1 [1]",IC50 [2],"IC50 [3, 5]",hLOX-5 IC50 ([3]; mean ± SEM),Ki [4],preference for hMAO-A compared to hMAO-B [2],"IC50 ([3]; hLOX-5 IC50, mean ± SEM)","Ki ([4]; rat liver homogenate, [3H]-DTG, mean ± SEM, read-out: Ki σ2R)"
"COc1cc2oc(C(=O)Nc3ccc(CN(C)Cc4ccccc4)cc3)cc(=O)c2cc1OC [Compound 5, N-(4-((Benzyl(methyl)amino)methyl)phenyl)-6,7-dimethoxy-4-oxo-4H-chromene-2-carboxamide]",19.1 ± 1.5 ×10⁻⁶ cm/s,9 ± 0.1 µM,72.4 ± 2.2 µM,,,,,
"CN(Cc1ccccc1)Cc1ccc(NC(=O)c2cc(=O)c3cc(O)ccc3o2)cc1 [Compound 2, N-(4-((Benzyl(methyl)amino)methyl)phenyl)-6-hydroxy-4-oxo-4H-chromene-2-carboxamide]",6.8 ± 0.4 ×10⁻⁶ cm/s,7 ± 0.8 µM,> 100 µM,inactive,1.6 ± 0.28 µM,,,
"COc1ccc2oc(C(=O)Nc3ccc(CN(C)Cc4ccccc4)cc3)cc(=O)c2c1 [Compound 1, N-(4-((Benzyl(methyl)amino)methyl)phenyl)-6-methoxy-4-oxo-4H-chromene-2-carboxamide]",17.1 ± 1.5 ×10⁻⁶ cm/s,1.6 ± 0.4 µM,12.4 ± 0.5 µM,,1.78 ± 0.43 µM,at least 4.4 times,,
"COc1cc2oc(C(=O)Nc3cccc(CN(C)Cc4ccccc4)c3)cc(=O)c2cc1OC [Compound 6, N-(3-((Benzyl(methyl)amino)methyl)phenyl)-6,7-dimethoxy-4-oxo-4H-chromene-2-carboxamide]",18.8 ± 1.3 ×10⁻⁶ cm/s,> 100 µM,,,,,30 µM and 30.4 µM,1.3 ± 0.35 µM
